{
  "source": "patent US11400019B2",
  "about": "“Sustained release drug delivery systems with reduced impurities and related methods” (DURECT CORPORATION, priority 2020, dated 2022)",
  "system": "patients undergoing elective arthroscopic shoulder surgery",
  "assay": "Example 13 trial: safety",
  "type": "in vivo, human",
  "settings": "safety population",
  "source_text": "Pharmacokinetic/pharmacodynamic (PK/PD) relationships were to be assessed as part of central nervous system (CNS) toxicity monitoring and cardiac monitoring. For patients not selected for PK-profiling, if a cardiac or CNS event occurred that met the criteria for a serious adverse event (SAE) or a severe non-SAE, a blood sample for PK analysis was to be taken as close to the event as possible.\nThe incidence of adverse events (AEs); the incidence of bupivacaine-related CNS side effects; clinical laboratory tests; vital signs; 12-lead ECGs; and physical examinations.\nEvaluation by the investigator of wound healing and tissue conditions at the surgical wound on Days 7 and 14, and at the 6-month follow-up visit. An MRI of the shoulder as well as a functionality assessment of the shoulder using the Constant-Murley score were to be performed at the 6-month follow-up visit.",
  "note": "Where a name gives a salt, the structure may show the parent alone.",
  "data": [
    {"compound": "CCCCN1CCCCC1C(=O)Nc1c(C)cccc1C", "note": "(stereo not drawn) [bupivacaine HCl, bupivacaine hydrochloride]", "values": [
      {"measurement": "All TEAEs, % of patients", "result": 37.9, "unit": "%"},
      {"measurement": "All TEAEs, n (patients with at least one event)", "result": 11},
      {"measurement": "TEAE Alanine aminotransferase increased, % of patients", "result": 0.0, "unit": "%"},
      {"measurement": "TEAE Cardiac disorders, % of patients", "result": 10.3, "unit": "%"},
      {"measurement": "TEAE Gastrointestinal disorders, % of patients", "result": 3.4, "unit": "%"},
      {"measurement": "TEAE General disorders and administration site conditions, % of patients", "result": 0.0, "unit": "%"},
      {"measurement": "TEAE Headache, % of patients", "result": 3.4, "unit": "%"},
      {"measurement": "TEAE Injury, poisoning and procedural complications, % of patients", "result": 0.0, "unit": "%"},
      {"measurement": "TEAE Investigations, % of patients", "result": 6.9, "unit": "%"},
      {"measurement": "TEAE Musculoskeletal and connective tissue disorders, % of patients", "result": 6.9, "unit": "%"},
      {"measurement": "TEAE Musculoskeletal pain, % of patients", "result": 6.9, "unit": "%"},
      {"measurement": "TEAE Nausea, % of patients", "result": 3.4, "unit": "%"},
      {"measurement": "TEAE Nervous system disorders, % of patients", "result": 13.8, "unit": "%"},
      {"measurement": "TEAE Respiratory, thoracic and mediastinal disorders, % of patients", "result": 6.9, "unit": "%"},
      {"measurement": "TEAE Skin and subcutaneous tissue disorders, % of patients", "result": 6.9, "unit": "%"}
    ]}
  ]
}
